According to patent US20060046968A1, “Prodrug substituted benzoxazoles as estrogenic agents” (priority 2004, published 2006):
“And” between values parts separate entries of the source, which are not always exact repeats. Equal entries are not always repeated.

Key:
Format in all cases: in vivo
[1] = test system: Sexually immature Sprague-Dawley rats; assay: Rat uterotrophic test procedure (Procedure 1)
morphine-addicted rats = assay: Rat hot flush test procedure (tail skin temperature after naloxone)
Description: The effect of test compounds on hot flushes can be evaluated in a standard pharmacological test procedure that measures the ability of a test compound to blunt the increase in tail skin temperature, which occurs as morphine-addicted rats are acutely withdrawn from the drug using naloxone [Merchenthaler, et al., Maturitas 30: 307-16 (1998)]. It can also be used to detect estrogen receptor antagonist activity by co-dosing test compound with the reference estrogen. The following data were obtained from representative metabolites of compounds of the invention (Table 7).

[2] = test system: ovulation (number of oocytes ovulated); assay: Ovulation inhibition test procedure; conditions: 50 mg/kg
Description: The test procedure is used to determine whether test compounds can inhibit or change the timing of ovulation. It can also be used to determine the number of oocytes ovulated [Lundeen, et al., J Steroid Biochem Mol Biol 78: 137-143 (2001)]. The following data were obtained from representative metabolites of compounds from the invention (Table 22).

Female Mongolian gerbils = assay: Transient global ischemia in the Mongolian gerbil: neurogranin mRNA in hippocampus; conditions: gerbil hippocampus after 5 min global ischemia; s.c. daily
Protocol: Transient global ischemia in the Mongolian gerbil. The effect of test compounds on preventing or treating brain injury in response to oxygen deprivation/reperfusion were measured using the following test procedure.
Female Mongolian gerbils (60-80 g; Charles River Laboratories, Kingston, N.Y.) were housed in the Wyeth-Ayerst animal care facility Association for Assessment and Acreditation of Laboratory Animal Care (AAALAC) certified with a 12-hour light, 12-hour dark photoperiod and free access to tap water and a low-estrogen casein diet (Purina®; Richmond, Ind.). After acclimation (3-5 days), gerbils were anesthetized with isoflurane (2-3% mixture with O2), ovariectomized (Day 0). […] On Day 6, gerbils (n=4-5/group) were anesthetized with isoflurane, the common carotid arteries visualized via a mid-line neck incision and both arteries simultaneously occluded for 5 minutes with non-traumatic micro aneurysm clips. […]
The degree of neuronal protection was evaluated by in situ hybridization analysis of neurogranin mRNA. […]
Neurogranin mRNA was selected for these studies because it is highly expressed in the hippocampal neurons including CA1, but absent in glia and other cell types present in this brain region. […] The results from 6 sections (40 μm apart) per animal were averaged and statistically evaluated. […]

[3] = compound 2 mg/rat + 17α-ethinyl, 17β-estradiol 0.06 μg/rat s.c. (antagonist mode)

SMILES	mean uterine weight ± SEM ([1]; reference estrogen alone, 0.06 μg/rat s.c., days 19-21)	Temperature change 15 minutes after naloxone injection (mean ± SEM) (morphine-addicted rats; 0.3 mg/kg)	mean uterine weight ± SEM [1, 3] [mg]	Temperature change 15 minutes after naloxone injection (mean ± SEM) (morphine-addicted rats; 15 mg/kg)	Number of oocytes (mean ± SEM) [2]	Neurogranin mRNA (mean ± stdev) (Female Mongolian gerbils) [arbitrary units]
C#C[C@]1(O)CC[C@H]2[C@@H]3CCc4cc(O)ccc4[C@H]3CC[C@@]21C [17α-ethinyl, 17β-estradiol, 17α-ethinyl-17β-estradiol, reference compound]	104.7 ± 5.4 mg and 85.5 ± 3.1 mg	2.12 ± 1.14	–	–	–	–
Oc1ccc(-c2nc3cc(O)cc(Br)c3o2)cc1 [Example 20, 7-BROMO-2-(4-HYDROXYPHENYL)-1,3-BENZOXAZOL-5-OL]	–	–	95.9 ± 5.5	5.28 ± 0.71	14.13 ± 0.79	–
N#Cc1cc(O)cc2nc(-c3ccc(O)cc3)oc12 [Example 41, 5-HYDROXY-2-(4-HYDROXYPHENYL)-1,3-BENZOXAZOL-7-CARBONITRILE]	–	–	76.6 ± 3.0	5.25 ± 0.72	–	43.0 ± 21.8
